We go through nine molecules from PubChem BioAssay (NCI).

Some test systems named below: 786-0 renal; A498 renal; HCT-15 colon; HL-60(TB) leukemia; HS 578T breast; IGROV1 ovarian; K-562 leukemia; KM12 colon; LOX IMVI melanoma; MDA-MB-435; MOLT-4 leukemia; OVCAR-8 ovarian; SNB-19 CNS; SNB-75 CNS; TK-10 renal; HOP-92 NSCLC; OVCAR-5 ovarian.
Assay in all cases: NCI anticancer screen, dose series, 48 h

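Following 48 hours of exposure in 96-well plates, responses at five concentrations were used to interpolate endpoints linearly. TGI marks complete inhibition of growth.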

For `COc1cccc(C=C2N=C(c3ccccc3)N(n3c(-c4ccccc4)nc4ccccc4c3=O)C2=O)c1`, the TGI is over 100 µM in the assay with 786-0 renal; over 100 µM in the assay on A498 renal; over 100 µM with HCT-15 colon; 59.2 µM in the assay on HL-60(TB) leukemia; over 100 µM with HS 578T breast; over 100 µM in the assay on IGROV1 ovarian. Also, the TGI in the assay with K-562 leukemia, with KM12 colon, in the assay with LOX IMVI melanoma, with MDA-MB-435, with MOLT-4 leukemia and with OVCAR-8 ovarian was over 100 µM throughout. The TGI with SNB-19 CNS, in the assay with SNB-75 CNS and with TK-10 renal was over 100 µM each time.

For `COc1cc(COC(=O)N2CC=CC2C(=O)O)c([N+](=O)[O-])cc1OC` (centres undefined), the TGI with 786-0 renal, in the assay with A498 renal, in the assay on HCT-15 colon, in the assay with HL-60(TB) leukemia, in the assay with HOP-92 NSCLC and in the assay on HS 578T breast was over 100 µM throughout. Further, the TGI in the assay on IGROV1 ovarian, with K-562 leukemia, with KM12 colon, with MDA-MB-435, in the assay on MOLT-4 leukemia and with OVCAR-5 ovarian was over 100 µM in each case. The TGI in the assay with OVCAR-8 ovarian, in the assay with SNB-19 CNS, in the assay with SNB-75 CNS and in the assay on TK-10 renal was over 100 µM in each case.

For `Nc1ncnc2c1ncn2-c1ccc([N+](=O)[O-])cn1`, the TGI in the assay on 786-0 renal, in the assay with A498 renal, with HCT-15 colon, in the assay with HL-60(TB) leukemia, with HOP-92 NSCLC and in the assay on HS 578T breast was over 100 µM each time. Also, the TGI with KM12 colon, in the assay on LOX IMVI melanoma, in the assay on MDA-MB-435, in the assay with OVCAR-5 ovarian, in the assay with OVCAR-8 ovarian and with SNB-19 CNS was over 100 µM each time. The TGI in the assay with SNB-75 CNS and with TK-10 renal was over 100 µM in each case.

On to `COc1cc(C(c2cccc3ccccc23)N2C(=O)CCC2C(=O)O)cc(OC)c1OC` (centres undefined), for which the TGI in the assay on 786-0 renal, in the assay with A498 renal, in the assay on HCT-15 colon, in the assay on HL-60(TB) leukemia, in the assay with HOP-92 NSCLC and with HS 578T breast was over 100 µM in each case. The TGI in the assay on IGROV1 ovarian, in the assay with K-562 leukemia, in the assay on KM12 colon, with MDA-MB-435, with MOLT-4 leukemia and in the assay with OVCAR-5 ovarian was over 100 µM each time. The TGI in the assay with OVCAR-8 ovarian, in the assay with SNB-19 CNS and in the assay on SNB-75 CNS was over 100 µM each time.

Take `CCOC(=O)c1nc2ccccc2nc1Oc1ccc(C#N)cc1`: the TGI in the assay on 786-0 renal, in the assay with A498 renal, with HCT-15 colon, in the assay with HL-60(TB) leukemia, in the assay with HOP-92 NSCLC and with HS 578T breast was over 100 µM throughout. Also, the TGI with IGROV1 ovarian, in the assay on K-562 leukemia, in the assay on KM12 colon, in the assay on LOX IMVI melanoma, in the assay with MDA-MB-435 and in the assay with MOLT-4 leukemia was over 100 µM in each case. For the same molecule, the TGI with OVCAR-5 ovarian, with OVCAR-8 ovarian, in the assay on SNB-19 CNS and in the assay on TK-10 renal was over 100 µM in each case.

Consider `CCCC(C)NC(=O)c1ccc(N(C)Cc2cnc3nc(N)nc(N)c3n2)cc1` (centres undefined), for which the TGI with 786-0 renal was over 100 µM; in the assay on A498 renal it was over 100 µM; in the assay on HCT-15 colon, over 100 µM; with HL-60(TB) leukemia, over 100 µM; in the assay with HS 578T breast it was 44.2 µM; in the assay with IGROV1 ovarian, over 100 µM. For the same molecule, the TGI in the assay with K-562 leukemia was over 100 µM; in the assay with KM12 colon, over 100 µM; with LOX IMVI melanoma it was 82.6 µM; with MDA-MB-435 it was 48.2 µM; in the assay on MOLT-4 leukemia it was over 100 µM; with OVCAR-5 ovarian, 88.6 µM. For the same molecule, the TGI with OVCAR-8 ovarian is 75.2 µM; in the assay on SNB-19 CNS, over 100 µM; in the assay with SNB-75 CNS, 56.6 µM; in the assay on TK-10 renal it was 86.1 µM.

For the molecule `Cc1cccc(/C=N\NC(=S)N2CCCCC2)n1`, the TGI was 20.8 µM in the assay on 786-0 renal; 0.347 µM with A498 renal; over 100 µM in the assay on HCT-15 colon; 0.265 µM in the assay with HL-60(TB) leukemia; over 100 µM in the assay on HOP-92 NSCLC; over 100 µM with HS 578T breast. Further, the TGI is 0.0702 µM with IGROV1 ovarian; over 100 µM in the assay on K-562 leukemia; over 100 µM in the assay on KM12 colon; 41.6 µM in the assay with LOX IMVI melanoma; over 100 µM in the assay on MDA-MB-435; over 100 µM with OVCAR-5 ovarian. Further, the TGI is 0.582 µM in the assay with OVCAR-8 ovarian, over 100 µM with SNB-19 CNS and 9.32 µM with SNB-75 CNS.

In the case of `CCN(CC)C(=S)SC1C(=O)NC(=O)NC1=O`, the TGI in the assay with 786-0 renal is over 100 µM; with A498 renal, 6.06 µM; in the assay with HCT-15 colon, over 100 µM; in the assay with HL-60(TB) leukemia, over 100 µM; in the assay on HOP-92 NSCLC, over 100 µM; with HS 578T breast, over 100 µM. For the same molecule, the TGI with IGROV1 ovarian, in the assay with K-562 leukemia, in the assay on KM12 colon, in the assay on LOX IMVI melanoma, with MDA-MB-435 and in the assay on MOLT-4 leukemia was over 100 µM in each case. The TGI in the assay on OVCAR-5 ovarian, with OVCAR-8 ovarian, with SNB-75 CNS and with TK-10 renal was over 100 µM throughout.

Take `c1ccc(-c2c3c(nc4c2CC[C@H]4NC2=NCCN2)[C@@H](NC2=NCCN2)CC3)cc1`: the TGI with 786-0 renal, in the assay with A498 renal, in the assay with HCT-15 colon, in the assay with HL-60(TB) leukemia, in the assay with HOP-92 NSCLC and in the assay with HS 578T breast was over 100 µM each time. For the same molecule, the TGI in the assay on IGROV1 ovarian, with K-562 leukemia, with KM12 colon, in the assay with LOX IMVI melanoma, with MDA-MB-435 and in the assay with MOLT-4 leukemia was over 100 µM throughout. For the same molecule, the TGI in the assay on OVCAR-5 ovarian, in the assay with OVCAR-8 ovarian, in the assay on SNB-75 CNS and with TK-10 renal was over 100 µM each time.
